“And” between values parts separate entries of the source, which are not always exact repeats. Identical values can stand only once.
Legend:
human eosinophils = assay: Ionomycin-induced IL-8 secretion in human eosinophils (ELISA); assay type: cell-based; details: Eosinophil, compound 45 min before ionomycin, supernatant after 18 h, read-out: IC50, IL-8 release induced by ionomycin in eosinophils
Method: After 18 h stimulation at 37° C. in a 5% CO2 atmosphere, Interleukin-8 (IL-8) was measured in supernatants obtained from […] with a commercial ELISA kit from R&D Systems. The threshold sensitivity was 5 pg/ml and the inter- and intra-assay variations were less than 5%. The supernatants obtained from HMC-1 cells were aliquoted in duplicates for interleukin-6 (IL-6), IL-8, chemokine (C-C motif) ligand 5 (CCL5)/regulated upon activation, normal T-cell expressed and secreted (RANTES) and tumor necrosis factor-α (TNF-α) analysis using a high-throughput multiplex Luminex technology (Luminex 200 System; Luminex, Austin, Tx, USA) and Beadview software version 1.0 (Upstate Cell Signaling Solutions, Temecula, Calif.). Standard curves for known concentrations of recombinant human cytokines were used to convert median fluorescence intensities to cytokine concentrations in pg/ml. Only the linear portions of the standard curves were used to quantify cytokine concentrations, and in instances where the fluorescence reading exceeded the linear range of the standard curve, an appropriate dilution was performed to ensure that the concentration was in the linear portion of the curve.

[1] = tested on: protein concentration in the aqueous humor; assay: Protein measurement in aqueous humor; assay type: in vivo, Rabbit; details: for Protein in aqueous humor at the second paracentesis, Mean: group mean; for Protein in aqueous humor at the second paracentesis: individual eye sample, listed as BOL
Method: (§1) Each rabbit was placed in a restraint device and tagged with the alphanumeric code. The formulations were instilled (50 μl) into the conjunctival sac of both eyes 180, 120, 90 and 30 min before the first paracentesis; then 15, 30, 90 min after the first paracentesis. To perform the first paracentesis the animals were anaesthetized by intravenous injection of 5 mg/kg Zoletil® (Virbac; 2.5 mg/kg tiletamine HCl and 2.5 mg/kg zolazepam HCl) and one drop of local anesthetic (Novesina®, Novartis) was administered to the eye. Anterior chamber paracentesis was performed with a 26 G needle attached to a tuberculin syringe; the needle was introduced into the anterior chamber through the cornea, taking care not to damage the tissues. Two hours after the first paracentesis, the animals were sacrificed with 0.4 ml Tanax® (Intervet International B.V.) and the second paracentesis was performed. About 100 μl of aqueous humor were removed at the second paracentesis. Aqueous humor was immediately split in four aliquots and stored at −80° C. until analysis. Then both eyes were enucleated and the iris-ciliary body was carefully excised, placed in polypropylene tubes, and stored at −80° C. until analysis.
For protein concentration determination in the aqueous humor we used the Protein Quantification Kit (Fluka; Cat. No. 77371; Lot. No. 1303129). Five microliters of aqueous humor were diluted to 100 μl with water. Twenty microliters of samples and of standards were load into a 96-well plate and recorded in a plate layout. Samples were treated following the assay procedure described in the kit. A microplate reader (GDV, Italy; model DV 990 B/V6) set at 670 nm was used for making the calibration and analyzing the samples.

normotensive rabbits = details: topical eye drops, normotensive rabbits [27]; cited from earlier work
[2] = tested on: murine thymocyte line S49; details: murine thymocyte line S49 [26]; cited from earlier work
EoL-1 cells = assay: EoL-1 cell apoptosis (annexin V/PI flow cytometry); assay type: cell-based, human
Method: EoL-1 cells were grown in RPMI-1640+L-glutamine medium (containing 10% FBS) and kept at 37° C. in a 5% CO2 humidified atmosphere. Before each experiment, the cells were stabilized in serum-depleted media (0.1% FBS) for 24 h before treatments.

[3] = tested on: peripheral human blood eosinophils; assay: Spontaneous eosinophil apoptosis (annexin V/PI flow cytometry)
Method: To assess glucocorticoid-induced apoptosis, cells were double-stained with annexin V-Fluos and propidium iodide (PI). Annexin V-Fluos was used according to the manufacturer's instructions.
The suspension was incubated at room temperature for 10 min and analyzed in the BD FACS Canto II flow cytometry system (Becton, Dickinson and Company, New Jersey, USA). Eosinophils and EoL-1 cells were gated on the basis of their forward and side light scatter, with cell debris excluded from analysis. Apoptotic cells were defined as annexin V^+/PI^− cells. A two-way dot plot was prepared to verify the percentage of apoptotic cells. Annexin V^−/PI^− cells were used as control and annexin V^+/PI^+ cells were considered necrotic.
All data are expressed as mean±S.E.M. for the number of experiments indicated. Statistical comparisons were made by ANOVA and post-hoc Newman-Keuls test with differences of P<0.05 considered significant.

CXCR4 receptor = CXCR4 receptor surface expression in human eosinophils (FACS), transactivation marker; assay type: cell-based; details: 24 h
Method: FACS was performed to measure cell surface expression of annexin I and CXCR4 as indicators of glucocorticoid-mediated transactivation. Human eosinophils were double-stained with a red dye-conjugated secondary antibody to trace changes in the expression of CXCR4 or I, and a green dye-conjugated annexin V to exclude apoptotic cells from the analysis. The cells were counted and transferred to a 24-well plate (10^6 cells/well) and serum-starved (0.1% FBS) for 24 h.
At the end of the incubation, the cells were harvested and each sample was divided into two tubes to run parallel tests for annexin I and CXCR4 surface expression. After rinsing all samples with a HBSS solution containing 1% BSA, the cells were incubated for 45 min on a shaker with anti-annexin I or anti-CXCR4 antibodies (1:200) on ice; the negative control was incubated with an isotype-specific control antibody.
The cells were then washed twice with HBSS/BSA buffer before exposure to the Alexa Fluor® 568-conjugated secondary antibody. The excess of unbound antibody was washed away, and all samples were incubated for 15 min in the presence of annexin V-Fluos. […] Electronic gates were set on annexin V-negative cells and CXCR4 or annexin I-positive cells. Data from 10,000 cells/sample were analyzed using dedicated software (Becton, Dickinson and Company). The % of CXCR4 or annexin I positive cells was calculated.

PGE2 = assay: Prostaglandin E2 (PGE2) measurement in aqueous humor; assay type: in vivo, Rabbit; details: for PGE2 in aqueous humor at the second paracentesis, Mean: group mean; for PGE2 in aqueous humor at the second paracentesis: individual eye sample, listed as BOL; for PGE2 in aqueous humor, statistical comparison with CTR: p<0.05
Method: as §1
For the quantitative determination of PGE2 in the aqueous humor we used the PGE2 Immunoassay kit (R&D Systems; Cat. No. KGE004; Lot. No. 240010). Eleven microliters or 16 μl of aqueous humor were diluted to 110 μl or 160 μl with the calibrator diluent solution provided with the kit. One hundred microliters of samples and of standards were load into a 96-well plate and recorded in a plate layout. Samples were treated following the assay procedure described in the kit. A microplate reader (GDV, Italy; model DV 990 B/V6) set at 450 nm (wavelength correction at 540 nm) was used for making the calibration and analyzing the samples.

IC50 (human eosinophils): 10.7 nM
EC50 (EoL-1 cells; Homo sapiens, EOL1, 0.1% FBS 96 h, compound during the last 72 h, read-out: EC50, enhancement of spontaneous EoL-1 cell apoptosis): 315 nM
EC50 ([3]; read-out: EC50, enhancement of spontaneous eosinophil apoptosis, 48 h, 0.1% FBS, no GM-CSF/IL-5, 1-5000 nM): 456 nM
CXCR4 receptor surface expression (CXCR4 receptor; up to 5000 nM, vs vehicle-treated or control eosinophils): did not change CXCR4 receptor expression
SMILES: Cc1ccc2c(NC[C@](O)(CC(C)(C)c3cc(F)cc4c3OCC4)C(F)(F)F)cccc2n1 [BOL-303242-X, (R)-1,1,1-Trifluoro-4-(5-fluoro-2,3-dihydrobenzofuran-7-yl)-4-methyl-2-{[(2-methyl-5-quinolyl)amino]methyl}pentan-2-ol]
Protein in aqueous humor at the second paracentesis, Mean ([1]; 0.1% topical): 33.667 mg/mL
Protein in aqueous humor at the second paracentesis ([1]; 0.1% topical): 34.87 mg/mL and 34.41 mg/mL and 31.14 mg/mL and 22.82 mg/mL and 29.46 mg/mL and 31.69 mg/mL and 35.70 mg/mL and 49.25 mg/mL
Protein in aqueous humor at the second paracentesis, Mean ([1]; 0.5% topical): 28.844 mg/mL
Protein in aqueous humor at the second paracentesis ([1]; 0.5% topical): 33.98 mg/mL and 33.65 mg/mL and 19.99 mg/mL and 27.11 mg/mL and 19.72 mg/mL and 36.35 mg/mL and 27.71 mg/mL and 32.24 mg/mL
Protein in aqueous humor, statistical comparison with CTR ([1]; 0.5% topical, p<0.05): statistical significance
Protein in aqueous humor at the second paracentesis, Mean ([1]; 1% topical): 21.435 mg/mL
Protein in aqueous humor at the second paracentesis ([1]; 1% topical): 20.99 mg/mL and 21.48 mg/mL and 15.11 mg/mL and 20.28 mg/mL and 20.94 mg/mL and 21.89 mg/mL and 20.03 mg/mL and 30.76 mg/mL
Protein in aqueous humor, statistical comparison with CTR ([1]; 1% topical, p<0.001): statistical significance
Ability to increase intraocular pressure compared to dexamethasone (normotensive rabbits): reduced ability to increase intraocular pressure
Induction of apoptosis in thymocytes [2]: does not induce apoptosis
Efficacy, enhancement of spontaneous EoL-1 cell apoptosis (EoL-1 cells; 0.1% FBS 96 h, compound during the last 72 h): 61%
Percentage of annexin-V+/PI+ (necrotic) EoL-1 cells (EoL-1 cells; 72 h, 5000 nM, n=12, p>0.05 vs without compound (12±5%)): 7±4%
Eosinophil apoptosis after 24 h exposure ([3]; 24 h, 0.1% FBS, 100 and 1000 nM, data not shown): lower but significant apoptosis
Percentage of annexin-V+/PI+ (necrotic) peripheral blood eosinophils ([3]; 48 h, 5000 nM, mean±SEM, n=12, p>0.05 vs without compound (34±10%)): 25±9%
Efficacy, enhancement of spontaneous eosinophil apoptosis ([3]; 48 h, 0.1% FBS, no GM-CSF/IL-5, 1-5000 nM): 90%
CXCR4 receptor surface expression (CXCR4 receptor; 10 000 nM, significantly lower than 1000 nM dexamethasone): partially increased this receptor on the cell surface
PGE2 in aqueous humor at the second paracentesis, Mean (PGE2; 0.1% topical): 1.452 ng/mL
PGE2 in aqueous humor at the second paracentesis (PGE2; 0.1% topical): 1.62 ng/mL and 1.88 ng/mL and 2.15 ng/mL and 0.70 ng/mL and 1.34 ng/mL and 1.03 ng/mL
PGE2 in aqueous humor, statistical comparison with CTR (PGE2; 0.1% topical): statistically significant versus CTR
PGE2 in aqueous humor at the second paracentesis, Mean (PGE2; 0.5% topical): 1.384 ng/mL
PGE2 in aqueous humor at the second paracentesis (PGE2; 0.5% topical): 2.31 ng/mL and 2.59 ng/mL and 0.53 ng/mL and 0.75 ng/mL and 0.80 ng/mL and 1.62 ng/mL and 1.09 ng/mL
PGE2 in aqueous humor, statistical comparison with CTR (PGE2; 0.5% topical): statistically significant versus CTR
PGE2 in aqueous humor at the second paracentesis, Mean (PGE2; 1% topical): 2.168 ng/mL
PGE2 in aqueous humor at the second paracentesis (PGE2; 1% topical): 0.50 ng/mL and 1.87 ng/mL and 1.71 ng/mL and 4.04 ng/mL and 1.11 ng/mL and 3.78 ng/mL

— US20110104159A1, “COMPOSITIONS AND METHODS FOR TREATING, CONTROLLING, REDUCING, AMELIORATING, OR PREVENTING ALLERGY” (priority 2006, published 2011)
